Results taken from patent US10220091B2, “Combination treatments with sonic hedgehog inhibitors” (The General Hospital Corporation, priority 2013, dated 2019).

Columns and labels:
[1] = test system: Colo38, Colo38R, M21, M21R and TPF-10-741 cells; assay: MTT dose titration of PDGFRα-I; format: cell-based; details: Homo sapiens; dose titration experiment, MTT assay, the 5 cell lines; read-out: IC50 doses
Experimental: MTT assay was carried out as reported elsewhere^2. […] All experiments were performed three independent times in triplicates.
A dose titration experiment established the dose of PDGFRα-I to be combined with vemurafenib in the 5 cell lines.

melanoma cells = assay: Overcoming BRAF-I resistance mediated by PDGFRβ upregulation; format: cell-based; details: as reported and as found by the applicant
p-ERK = assay: Western blot of cell lysates, p-ERK; details: Colo38R, M21R and TPF-10-741 cells; vemurafenib 1 μM, sunitinib 3 μM, imatinib 20 μM
Experimental: A. Following an incubation at indicated time points at 37° C. cells were harvested and lysed. Cell lysates were analyzed by western blot with the indicated mAbs. β-actin-was used as a loading control. B. Following a 48 h incubation at 37° C. cells were harvested and lysed. Cell lysates were analyzed by western blot with the indicated mAbs. β-actin or Calnexin were used as a loading control. The results presented are representative of the results obtained in three independent experiments.
A. M21R and TPF-10-741 cells were transduced with PDGFRα-specific shRNA (#4) or with GFP-shRNA, used as a control, lentiviral particles. […] Following a three day incubation at 37° C. cells were harvested and lysed. Cell lysates were analyzed by western blot with the indicated mAbs. β-actin was used as a loading control. […] Cell proliferation was determined by MTT assay following a three day incubation at 37° C. Percentage of cell proliferation was calculated as the ratio of treated cells to untreated GFP-shRNA transduced cells. Data are expressed as mean±SD of the results obtained in three independent experiments. *** indicates P<0.01.
Following an incubation at indicated time points at 37° C. cells were harvested and lysed. Cell lysates were analyzed by western blot with the indicated mAbs. β-actin was used as a loading control. […]

IC50 [1] [nM]	SMILES	also measured
1000	CC1(COc2ccc3c(c2)ncn3-c2ccc3cccc(N4CCC(N)CC4)c3n2)COC1 [crenolanib]	
	Cc1ccc(NC(=O)c2ccc(CN3CCN(C)CC3)cc2)cc1Nc1nccc(-c2cccnc2)n1 [imatinib]	ability to overcome BRAF-I resistance mediated by PDGFRβ upregulation (melanoma cells): not able to overcome
	CCCS(=O)(=O)Nc1ccc(F)c(C(=O)c2c[nH]c3ncc(-c4ccc(Cl)cc4)cc23)c1F [vemurafenib]	p-ERK levels (p-ERK): not inhibited
2000	CCN(CC)CCNC(=O)c1c(C)[nH]c(/C=C2\C(=O)Nc3ccc(F)cc32)c1C [sunitinib]	
